Results on 21 molecules are retold here after ChEMBL document CHEMBL1130030, “Tyrosine kinase inhibitors. 11. Soluble analogues of pyrrolo- and pyrazoloquinazolines as epidermal growth factor receptor inhibitors: synthesis, biological evaluation, and modeling of the mode of binding” (J Med Chem, 1997).

The target in assay [1] is T1, Epidermal growth factor receptor (Homo sapiens, UniProt P00533). In words: Inhibition of autophosphorylation of epidermal growth factor receptor prepared from human A431 carcinoma cells.
T1 sequence (P00533 whole entry): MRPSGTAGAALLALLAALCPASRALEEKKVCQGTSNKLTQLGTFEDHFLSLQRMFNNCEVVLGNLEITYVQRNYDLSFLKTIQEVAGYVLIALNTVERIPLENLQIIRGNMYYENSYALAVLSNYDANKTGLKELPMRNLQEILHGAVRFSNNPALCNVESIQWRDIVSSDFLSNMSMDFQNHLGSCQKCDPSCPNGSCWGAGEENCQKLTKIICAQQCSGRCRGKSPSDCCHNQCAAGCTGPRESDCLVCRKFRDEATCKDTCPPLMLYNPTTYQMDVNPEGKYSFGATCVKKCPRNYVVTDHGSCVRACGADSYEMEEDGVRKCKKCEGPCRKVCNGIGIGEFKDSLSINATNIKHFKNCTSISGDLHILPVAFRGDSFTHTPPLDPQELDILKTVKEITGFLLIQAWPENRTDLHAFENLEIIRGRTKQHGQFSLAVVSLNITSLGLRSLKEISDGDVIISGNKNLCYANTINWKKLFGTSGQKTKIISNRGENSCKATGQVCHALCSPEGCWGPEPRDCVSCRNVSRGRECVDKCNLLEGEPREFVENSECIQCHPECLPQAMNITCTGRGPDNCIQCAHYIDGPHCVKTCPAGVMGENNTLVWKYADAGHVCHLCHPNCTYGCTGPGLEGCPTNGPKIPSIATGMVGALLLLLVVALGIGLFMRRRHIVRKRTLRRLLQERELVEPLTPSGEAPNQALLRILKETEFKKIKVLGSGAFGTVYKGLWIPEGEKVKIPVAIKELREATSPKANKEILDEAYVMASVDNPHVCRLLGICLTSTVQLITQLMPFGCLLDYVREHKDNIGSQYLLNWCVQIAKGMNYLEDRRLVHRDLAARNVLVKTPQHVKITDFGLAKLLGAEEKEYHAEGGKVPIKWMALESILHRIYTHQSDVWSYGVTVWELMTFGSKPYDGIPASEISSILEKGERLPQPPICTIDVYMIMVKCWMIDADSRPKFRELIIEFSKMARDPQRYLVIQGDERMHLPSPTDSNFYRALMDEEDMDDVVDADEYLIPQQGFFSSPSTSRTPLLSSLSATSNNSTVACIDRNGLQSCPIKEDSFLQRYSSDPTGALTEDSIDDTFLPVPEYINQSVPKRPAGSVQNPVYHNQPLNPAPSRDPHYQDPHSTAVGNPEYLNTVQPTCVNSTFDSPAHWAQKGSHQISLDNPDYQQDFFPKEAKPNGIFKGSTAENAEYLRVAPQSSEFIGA
The target in assay [2] is T1, Epidermal growth factor receptor. In words: Inhibition of the phosphorylation of a random polyglutamic acid/tyrosine copolymer by human epidermal growth factor receptor(EGFR) prepared from human A431 carcinoma cells.

Bounds are passed on as bounds.

`CN(C)CCCn1ccc2cc3c(Nc4cccc(Br)c4)ncnc3cc21`: the results for the 50% inhibitory concentration (IC50) in assay [1] and in assay [2] were 230 nM and 21 nM, respectively.
For the molecule `COc1cccc2c(Nc3cccc(Br)c3)ncnc12`, the IC50 in assay [2] was greater than 10000 nM.
With `CN(CC(=O)O)Cc1c[nH]c2cc3ncnc(Nc4cccc(Br)c4)c3cc12`, the figures for the IC50 in assay [1] and in assay [2] were 584 nM and 0.72 nM, respectively.
In turn, `Brc1cccc(Nc2ncnc3cc4[nH]ncc4cc23)c1` registered a half-inhibitory concentration (IC50) in assay [1] of 20 nM.
Take `OCC(O)Cn1ccc2cc3c(Nc4cccc(Br)c4)ncnc3cc21` (configuration not stated): the results for the IC50 in assay [1] and in assay [2] were 49 nM and 1.6 nM, respectively.
For `CN(C)Cc1c[nH]c2cc3ncnc(Nc4cccc(Br)c4)c3cc12`, in that order: 9.7 nM and 2.6 nM.
For `Cn1ccc2cc3c(Nc4cccc(Br)c4)ncnc3cc21`, in that order: 22 nM and 0.8 nM.
For `Brc1cccc(Nc2ncnc3cc4c(ccn4CCN4CCOCC4)cc23)c1`, in that order: 16 nM and 3.7 nM.
The molecule `Brc1cccc(Nc2ncnc3cc4[nH]ccc4cc23)c1` came in with a 50% inhibitory concentration (IC50) in assay [1] of 22 nM.
Consider `OCC(O)Cn1ncc2cc3c(Nc4cccc(Br)c4)ncnc3cc21` (configuration not stated), for which the values for the IC50 in assay [1] and in assay [2] were 318 nM and 12 nM, respectively.
Consider `Cn1ncc2cc3c(Nc4cccc(Br)c4)ncnc3cc21`, for which the IC50 is 13 nM in assay [1] and 0.37 nM in assay [2].
The corresponding values for `CN(C)CCN(C)Cc1c[nH]c2cc3ncnc(Nc4cccc(Br)c4)c3cc12` are 81 nM and 7.5 nM.
The corresponding values for `CN(C)CCn1ccc2cc3c(Nc4cccc(Br)c4)ncnc3cc21` are 145 nM and 41 nM.
For the molecule `Brc1cccc(Nc2nccc3ccccc23)c1`, the IC50 in assay [2] was greater than 100000 nM.
Turning to `Brc1cccc(Nc2ncnc3cc4c(cnn4CCCN4CCOCC4)cc23)c1`, the IC50 worked out at 77 nM in assay [1] and 8.8 nM in assay [2].
`Brc1cccc(Nc2ncnc3cc4[nH]cc(CN5CCOCC5)c4cc23)c1`: the 50% inhibitory concentration (IC50) is 9.6 nM in assay [1] and 4.8 nM in assay [2].
For the molecule `Cc1nc(Nc2cccc(Br)c2)c2ccccc2n1`, in assay [2], the IC50 is greater than 10000 nM.
In the case of `O=C(O)Cn1ccc2cc3c(Nc4cccc(Br)c4)ncnc3cc21`, the values for the IC50 in assay [1] and in assay [2] were 1780 nM and 5.1 nM, respectively.
The corresponding values for `CN(C)CCn1ncc2cc3c(Nc4cccc(Br)c4)ncnc3cc21` are 262 nM and 40 nM.
As for `COC(=O)CN(C)Cc1c[nH]c2cc3ncnc(Nc4cccc(Br)c4)c3cc12`, the half-maximal inhibitory concentration (IC50) was determined as 9.6 nM in assay [1] and 3.4 nM in assay [2].
As for `OCCN(CCO)Cc1c[nH]c2cc3ncnc(Nc4cccc(Br)c4)c3cc12`, the half-inhibitory concentration (IC50) in assay [1] came to 135 nM; in assay [2] it was 3.5 nM.
